Laboratory results taken from US5688938A, “Calcium receptor-active molecules” (priority 1995, dated 1997).

Key:
human parathyroid cells = assay: PTH secretion from human parathyroid cells; type: cell-based
Experimental: PTH secretion was measured by first suspending cells in PCB containing 0.5 mM CaCl2 and 0.1% BSA.
For human cells, a commercially available radioimmunoassay kit (INS-PTH; Nichols Institute, Los Angeles, Calif.) which recognizes intact and N-terminal human PTH was used because GW-1 antibody recognizes human PTH poorly.

net positive charge = type: physicochemical

With NC[C@@H]1O[C@H](O[C@H]2[C@@H](O)[C@H](O[C@@H]3[C@@H](O)[C@H](N)C[C@H](N)[C@H]3O[C@H]3O[C@H](CN)[C@@H](O)[C@H](O)[C@H]3N)O[C@@H]2CO)[C@H](N)[C@@H](O)[C@@H]1O [Neomycin] the “inhibition of PTH secretion” value (human parathyroid cells) was “inhibited PTH secretion from human parathyroid cells”, the “Net (+) Charge” value (net positive charge; Table 1, at physiological pH) was “+6” and the “net positive charge at pH 7.3” value (net positive charge; pH 7.3) was “+6”.
